This is an account of results in patent US6972296B2, “Carboxylic acid derivatives that inhibit the binding of integrins to their receptors” (Encysive Pharmaceuticals Inc., priority 1999, dated 2005).

This assay has as its target T1, α4β1 integrin (Homo sapiens, UniProt P05556+P13612).
T1 construct: endogenous in cells; host or cells: Ramos cells
Briefly: Adhesion of calcein-labeled Ramos cells to CS1 (fibronectin) peptide conjugated ovalbumin. The format is cell-based. To be noted: Ramos cell adhesion to CS1 conjugated ovalbumin. In outline:
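Plates bearing CS1 fibronectin peptide coupled to ovalbumin (0.5 μg/ml coat, 3% BSA block) received calcein-labelled Ramos cells plus compound (100 μM stated) for 30 min at 37 °C. Buffer was TBS pH 7.5 with 1 mM Mg2+, Ca2+, Mn2+; bound cells quantified by fluorescence after lysis; […].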

Setting [1] is: Table 7, dose required to give 50% inhibition.
The mark [2] stands for this setting: Table 5, dose required to give 50% inhibition.

T1 sequence (P13612 34-1032): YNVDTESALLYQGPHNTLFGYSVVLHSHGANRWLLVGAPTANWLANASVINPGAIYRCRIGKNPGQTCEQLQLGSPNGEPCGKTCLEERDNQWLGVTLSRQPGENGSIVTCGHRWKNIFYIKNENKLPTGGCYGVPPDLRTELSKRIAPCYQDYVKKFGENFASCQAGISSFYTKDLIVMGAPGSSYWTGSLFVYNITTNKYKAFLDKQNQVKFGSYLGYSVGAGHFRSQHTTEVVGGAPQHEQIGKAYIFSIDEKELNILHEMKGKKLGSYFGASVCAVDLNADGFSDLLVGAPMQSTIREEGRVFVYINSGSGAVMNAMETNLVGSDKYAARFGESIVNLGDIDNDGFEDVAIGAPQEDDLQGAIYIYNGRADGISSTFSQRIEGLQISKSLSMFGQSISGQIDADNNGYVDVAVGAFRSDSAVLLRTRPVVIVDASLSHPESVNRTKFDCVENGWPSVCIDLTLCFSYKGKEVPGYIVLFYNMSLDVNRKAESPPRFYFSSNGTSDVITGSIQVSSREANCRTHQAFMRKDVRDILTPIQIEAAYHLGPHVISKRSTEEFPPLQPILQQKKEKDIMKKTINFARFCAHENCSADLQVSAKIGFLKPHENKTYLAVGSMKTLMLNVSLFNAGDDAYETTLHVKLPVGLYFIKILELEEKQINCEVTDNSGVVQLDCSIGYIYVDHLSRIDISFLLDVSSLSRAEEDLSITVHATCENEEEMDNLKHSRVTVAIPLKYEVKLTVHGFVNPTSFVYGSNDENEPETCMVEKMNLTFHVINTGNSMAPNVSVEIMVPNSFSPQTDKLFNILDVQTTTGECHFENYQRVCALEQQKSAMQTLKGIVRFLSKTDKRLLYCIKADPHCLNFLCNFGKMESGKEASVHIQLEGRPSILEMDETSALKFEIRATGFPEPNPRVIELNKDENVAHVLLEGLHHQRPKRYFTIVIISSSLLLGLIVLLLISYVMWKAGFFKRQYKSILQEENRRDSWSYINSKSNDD
T1 sequence (P05556 21-798): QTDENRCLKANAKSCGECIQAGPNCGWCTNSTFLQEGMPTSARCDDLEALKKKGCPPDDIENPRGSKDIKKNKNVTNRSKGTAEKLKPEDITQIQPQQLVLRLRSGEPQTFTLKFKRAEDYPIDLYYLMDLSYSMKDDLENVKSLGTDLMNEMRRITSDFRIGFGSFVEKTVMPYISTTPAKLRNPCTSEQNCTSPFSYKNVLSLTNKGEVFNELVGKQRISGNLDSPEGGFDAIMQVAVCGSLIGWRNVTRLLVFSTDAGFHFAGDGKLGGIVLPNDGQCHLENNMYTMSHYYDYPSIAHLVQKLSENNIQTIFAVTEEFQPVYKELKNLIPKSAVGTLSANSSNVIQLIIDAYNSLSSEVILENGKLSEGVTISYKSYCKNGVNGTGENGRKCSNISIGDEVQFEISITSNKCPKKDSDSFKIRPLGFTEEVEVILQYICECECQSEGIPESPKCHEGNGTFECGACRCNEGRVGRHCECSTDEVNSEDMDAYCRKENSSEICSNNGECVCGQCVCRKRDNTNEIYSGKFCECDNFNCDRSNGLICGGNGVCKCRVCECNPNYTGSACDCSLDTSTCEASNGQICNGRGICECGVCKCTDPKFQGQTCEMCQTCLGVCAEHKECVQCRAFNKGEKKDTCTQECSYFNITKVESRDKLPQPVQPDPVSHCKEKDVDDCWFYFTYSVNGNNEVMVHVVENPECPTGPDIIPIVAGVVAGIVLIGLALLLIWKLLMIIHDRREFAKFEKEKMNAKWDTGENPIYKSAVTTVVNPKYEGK

On to `CCCNc1ccn(Cc2ccccc2Cl)c(=O)c1NC(=O)N[C@@H](CC(=O)O)c1ccc(C)cc1` [(3S)-3-[({[1-[(2-chlorophenyl)methyl]-2-oxo-4-(propylamino)-1,2-dihydro-3-pyridinyl]amino}carbonyl)amino]-3-(4-methylphenyl)propanoic acid], for which, for the setting “Table 3, 30 minutes at 37° C.”, the IC50 – broadly, the midpoint of a concentration-inhibition curve – was 10 nM. With `CCOc1cccc([C@H](CC(=O)O)NC(=O)Nc2c(O)c(C)nn(Cc3c(Cl)cccc3OCC)c2=O)c1` [(3S)-3-[({[2-(2-chloro-6-ethoxybenzyl)-5-hydroxy-6-methyl-3-oxo-2,3-dihydropyridazin-4-yl]amino}carbonyl)amino]-3-(3-ethoxyphenyl)propanoic acid], the concentration for half-maximal inhibition (IC50) under setting [1] is 3 nM. With `Cc1ccc([C@H](CC(=O)O)NC(=O)Nc2c(CC(C)C)nc(C)n(Cc3ccccc3)c2=O)cc1` [(3S)-3-[({[2-methyl-4-(2-methylpropyl)-6-oxo-1-(phenylmethyl)-1,6-dihydro-5-pyrimidinyl]amino}carbonyl)amino]-3-(4-methylphenyl)propanoic acid], the half-inhibitory concentration (IC50) (Table 3, 30 minutes at 37° C.) was 10 nM.

As for `Cc1ccc([C@H](CC(=O)O)NC(=O)Nc2cnc(C)n(Cc3ccccc3)c2=O)cc1` [(3S)-3-[({[2-methyl-6-oxo-1-(phenylmethyl)-1,6-dihydro-5-pyrimidinyl]amino}carbonyl)amino]-3-(4-methylphenyl)propanoic acid], for the setting “Table 4, 30 minutes at 37° C.”, the half-maximal inhibitory concentration (IC50) was 100 nM. Regarding `Cc1ccc([C@H](CC(=O)O)NC(=O)Nc2c(O)ccn(Cc3ccccn3)c2=O)cc1` [(3S)-3-[({[4-hydroxy-2-oxo-1-(pyridin-2-ylmethyl)-1,2-dihydropyridin-3-yl]amino}carbonyl)amino]-3-(4-methylphenyl)propanoic acid], the half-inhibitory concentration (IC50) under setting [2] is 45 nM. With `Cc1ccc([C@H](CC(=O)O)NC(=O)Nc2c(NC(=O)NC(C)(C)C)ccn(Cc3ccccc3Cl)c2=O)cc1` [(3S)-3-[({[4-{[(tert-butylamino)carbonyl]amino}-1-(2-chlorobenzyl)-2-oxo-1,2-dihydropyridin-3-yl]amino}carbonyl)amino]-3-(4-methylphenyl)propanoic acid], the concentration for half-maximal inhibition (IC50) under setting [2] is 10 nM. For the compound `Cc1ccc([C@H](CC(=O)O)NC(=O)Nc2c(O)c(Cl)cn(Cc3ccccc3Cl)c2=O)cc1` [(3S)-3-[({[5-chloro-1-(2-chlorobenzyl)-4-hydroxy-2-oxo-1,2-dihydropyridin-3-yl]amino}carbonyl)amino]-3-(4-methylphenyl)propanoic acid], for the setting “Table 6, 30 minutes at 37° C.”, the concentration for half-maximal inhibition (IC50) was 6 nM. With `Cc1ccc([C@H](CC(=O)O)NC(=O)Nc2cc(Cl)cc(Cc3ccccc3)c2O)cc1` [(3S)-3-[({[5-chloro-2-hydroxy-3-(phenylmethyl)phenyl]amino}carbonyl)amino]-3-(4-methylphenyl)propanoic acid], for the setting “Table 4, 30 minutes at 37° C.”, the concentration for half-maximal inhibition (IC50) was 8000 nM. With `Cc1ccc([C@H](CC(=O)O)NC(=O)Nc2c(NC(=O)C(C)(C)C)ccn(Cc3ccccc3Cl)c2=O)cc1` [(3S)-3-{[({1-(2-chlorobenzyl)-4-[(2,2-dimethylpropanoyl)amino]-2-oxo-1,2-dihydropyridin-3-yl}amino)carbonyl]amino}-3-(4-methylphenyl)propanoic acid], the IC50 under setting [2] is 10 nM. On to `Cc1ccc([C@H](CC(=O)O)NC(=O)Nc2c(O)ccn(Cc3cc(S(C)(=O)=O)ccc3Cl)c2=O)cc1` [(3S)-3-{[({1-[2-chloro-5-(methylsulfonyl)benzyl]-4-hydroxy-2-oxo-1,2-dihydropyridin-3-yl}amino)carbonyl]amino}-3-(4-methylphenyl)propanoic acid], for which the IC50 under setting [2] is 3 nM.

As for `Cc1ccc([C@H](CC(=O)O)NC(=O)Nc2c(O)ccn(Cc3cc(C(F)(F)F)ccc3Cl)c2=O)cc1` [(3S)-3-{[({1-[2-chloro-5-(trifluoromethyl)benzyl]-4-hydroxy-2-oxo-1,2-dihydropyridin-3-yl}amino)carbonyl]amino}-3-(4-methylphenyl)propanoic acid], the IC50 under setting [2] was 10 nM. Take `Cc1ccc([C@H](CC(=O)O)NC(=O)Nc2c(C)ccn(Cc3ccccc3Br)c2=O)cc1` [(3S)-3-{[({1-[(2-bromophenyl)methyl]-4-methyl-2-oxo-1,2-dihydro-3-pyridinyl}amino)carbonyl]amino}-3-(4-methylphenyl)propanoic acid]: where the note is “Table 3, 30 minutes at 37° C.”, the IC50 was 10 nM.

With `Cc1ccc([C@H](CC(=O)O)NC(=O)Nc2c(O)ccn(Cc3c(F)cccc3Cl)c2=O)cc1` [(3S)-3-{[({1-[(2-chloro-6-fluorophenyl)methyl]-4-hydroxy-2-oxo-1,2-dihydro-3-pyridinyl}amino)carbonyl]amino}-3-(4-methylphenyl)propanoic acid], the half-maximal inhibitory concentration (IC50) (Table 3, 30 minutes at 37° C.) was 10 nM.

On to `Cc1cccc(Cl)c1Cn1c2c(c(O)c(NC(=O)N[C@@H](CC(=O)O)c3ccc4c(ccn4C)c3)c1=O)CCC2` [(3S)-3-{[({1-[(2-chloro-6-methylphenyl)methyl]-4-hydroxy-2-oxo-2,5,6,7-tetrahydro-1H-cyclopenta[b]pyridin-3-yl}amino)carbonyl]amino}-3-(1-methyl-1H-indol-5-yl)propanoic acid], for which the IC50 under setting [1] is 3 nM. On the same count and under the same terms, with `Cc1cccc(Cl)c1Cn1c2c(c(O)c(NC(=O)N[C@@H](CC(=O)O)c3ccc4[nH]ccc4c3)c1=O)CCC2` [(3S)-3-{[({1-[(2-chloro-6-methylphenyl)methyl]-4-hydroxy-2-oxo-2,5,6,7-tetrahydro-1H-cyclopenta[b]pyridin-3-yl}amino)carbonyl]amino}-3-(1H-indol-5-yl)propanoic acid] the figure was 2 nM; with `Cc1cccc(Cl)c1Cn1c2c(c(O)c(NC(=O)N[C@@H](CC(=O)O)c3cccc(NS(C)(=O)=O)c3)c1=O)CCC2` [(3S)-3-{[({1-[(2-chloro-6-methylphenyl)methyl]-4-hydroxy-2-oxo-2,5,6,7-tetrahydro-1H-cyclopenta[b]pyridin-3-yl}amino)carbonyl]amino}-3-{3-[(methylsulfonyl)amino]phenyl}propanoic acid], 3 nM. In the case of `CCN(c1cccc([C@H](CC(=O)O)NC(=O)Nc2c(O)c3c(n(Cc4c(C)cccc4Cl)c2=O)CCC3)c1)S(C)(=O)=O` [(3S)-3-{[({1-[(2-chloro-6-methylphenyl)methyl]-4-hydroxy-2-oxo-2,5,6,7-tetrahydro-1H-cyclopenta[b]pyridin-3-yl}amino)carbonyl]amino}-3-{3-[ethyl(methylsulfonyl)amino]phenyl}propanoic acid], the IC50 under setting [1] was 1 nM. With `Cc1cccc(Cl)c1Cn1c2c(c(O)c(NC(=O)N[C@@H](CC(=O)O)c3cccc(N(C)S(C)(=O)=O)c3)c1=O)CCC2` [(3S)-3-{[({1-[(2-chloro-6-methylphenyl)methyl]-4-hydroxy-2-oxo-2,5,6,7-tetrahydro-1H-cyclopenta[b]pyridin-3-yl}amino)carbonyl]amino}-3-{3-[methyl(methylsulfonyl)amino]phenyl}propanoic acid], the IC50 under setting [1] was 1.3 nM.

Consider `O=C(O)C[C@H](NC(=O)Nc1cccn(Cc2ccccc2Cl)c1=O)c1ccc(O)cc1` [(3S)-3-{[({1-[(2-chlorophenyl)methyl]-2-oxo-1,2-dihydro-3-pyridinyl}amino)carbonyl]amino}-3-(4-hydroxyphenyl)propanoic acid], for which the half-inhibitory concentration (IC50) (Table 4, 30 minutes at 37° C.) is 100 nM. Consider `Cc1ccc([C@H](CC(=O)O)NC(=O)Nc2c(-c3ccccc3)ccn(Cc3ccccc3Cl)c2=O)cc1` [(3S)-3-{[({1-[(2-chlorophenyl)methyl]-2-oxo-4-phenyl-1,2-dihydro-3-pyridinyl}amino)carbonyl]amino}-3-(4-methylphenyl)propanoic acid], for which the IC50 (Table 3, 30 minutes at 37° C.) was 10 nM. For `Cc1ccc([C@H](CC(=O)O)NC(=O)Nc2c(NC(C)(C)C)ccn(Cc3ccccc3Cl)c2=O)cc1` [(3S)-3-{[({1-[(2-chlorophenyl)methyl]-4-[(1,1-dimethylethyl)amino]-2-oxo-1,2-dihydro-3-pyridinyl}amino)carbonyl]amino}-3-(4-methylphenyl)propanoic acid], for the setting “Table 3, 30 minutes at 37° C.”, the concentration for half-maximal inhibition (IC50) was 3 nM. As to `CCc1ccn(Cc2ccccc2Cl)c(=O)c1NC(=O)N[C@@H](CC(=O)O)c1ccc(C)cc1` [(3S)-3-{[({1-[(2-chlorophenyl)methyl]-4-ethyl-2-oxo-1,2-dihydro-3-pyridinyl}amino)carbonyl]amino}-3-(4-methylphenyl)propanoic acid], the 50% inhibitory concentration (IC50) (Table 3, 30 minutes at 37° C.) was 10 nM. As to `Cc1cc(C)cc([C@H](CC(=O)O)NC(=O)Nc2c(O)ccn(Cc3ccccc3Cl)c2=O)c1` [(3S)-3-{[({1-[(2-chlorophenyl)methyl]-4-hydroxy-2-oxo-1,2-dihydro-3-pyridinyl}amino)carbonyl]amino}-3-(3,5-dimethylphenyl)propanoic acid], the concentration for half-maximal inhibition (IC50) (Table 3, 30 minutes at 37° C.) is 15 nM.

As to `Cc1cccc([C@H](CC(=O)O)NC(=O)Nc2c(O)ccn(Cc3ccccc3Cl)c2=O)c1` [(3S)-3-{[({1-[(2-chlorophenyl)methyl]-4-hydroxy-2-oxo-1,2-dihydro-3-pyridinyl}amino)carbonyl]amino}-3-(3-methylphenyl)propanoic acid], where the note is “Table 3, 30 minutes at 37° C.”, the IC50 is 20 nM.

For the compound `COc1cccc([C@H](CC(=O)O)NC(=O)Nc2c(O)ccn(Cc3ccccc3Cl)c2=O)c1` [(3S)-3-{[({1-[(2-chlorophenyl)methyl]-4-hydroxy-2-oxo-1,2-dihydro-3-pyridinyl}amino)carbonyl]amino}-3-[3-(methyloxy)phenyl]propanoic acid], under “Table 3, 30 minutes at 37° C.”, the IC50 was 5 nM. Turning to `O=C(O)C[C@H](NC(=O)Nc1c(O)ccn(Cc2ccccc2Cl)c1=O)c1cccc(C(F)(F)F)c1` [(3S)-3-{[({1-[(2-chlorophenyl)methyl]-4-hydroxy-2-oxo-1,2-dihydro-3-pyridinyl}amino)carbonyl]amino}-3-[3-(trifluoromethyl)phenyl]propanoic acid], the IC50 (Table 3, 30 minutes at 37° C.) is 20 nM.

As to `COc1ccc([C@H](CC(=O)O)NC(=O)Nc2c(O)ccn(Cc3ccccc3Cl)c2=O)cc1C` [(3S)-3-{[({1-[(2-chlorophenyl)methyl]-4-hydroxy-2-oxo-1,2-dihydro-3-pyridinyl}amino)carbonyl]amino}-3-[3-methyl-4-(methyloxy)phenyl]propanoic acid], for the setting “Table 3, 30 minutes at 37° C.”, the IC50 was 8 nM.
